Experimental data as given in US10004701B2, “Methods and compositions for treating infection” (UNIVERSITY OF ROCHESTER, priority 2012, dated 2018).
Where a name gives a salt, the structure may show the parent alone. Read-outs that look alike come from different tables or passages of the source.

How the values were obtained:
Experiment in all cases: AK assay 384-well format, Prestwick library screening
[1] = test system: A. baumannii strain 98-37-09; assay type: cell-based, Acinetobacter baumannii; conditions: for fold induction at 50 µM: Acinetobacter baumannii, 983709, 3 h
[2] = test system: P. aeruginosa; assay type: cell-based, Pseudomonas aeruginosa; conditions: for fold induction at 50 µM: Pseudomonas aeruginosa, 3 h
[3] = test system: E. cloacae; assay type: cell-based, Enterobacter cloacae; conditions: for fold induction at 50 µM: Enterobacter cloacae, 3 h
[4] = test system: S. aureus strain USA300-0114; assay type: cell-based, Staphylococcus aureus; conditions: for fold induction at 50 µM: Staphylococcus aureus, USA300, 3 h
[5] = test system: E. coli; assay type: cell-based, Escherichia coli; conditions: for fold induction at 50 µM: Escherichia coli, 3 h
[6] = test system: E. faecium; assay type: cell-based, Enterococcus faecium; conditions: for fold induction at 50 µM: Enterococcus faecium, 3 h
[7] = test system: K. pneumoniae; assay type: cell-based, Klebsiella pneumoniae; conditions: for fold induction at 50 µM: Klebsiella pneumoniae, 3 h
[8] = planktonic A. baumannii, 50 μM final drug concentration, cutoff for positive-scoring molecules 3-fold increase, read-out: AK-based Prestwick Library Screening Results, A. baumannii (increase in extracellular AK activity)
[9] = planktonic P. aeruginosa, 50 μM final drug concentration, cutoff for positive-scoring molecules 3-fold increase, read-out: AK-based Prestwick Library Screening Results, P. aeruginosa (increase in extracellular AK activity)
[10] = planktonic E. cloacae, 50 μM final drug concentration, cutoff for positive-scoring molecules 3-fold increase, read-out: AK-based Prestwick Library Screening Results, E. cloacae (increase in extracellular AK activity)
[11] = planktonic S. aureus, 50 μM final drug concentration, cutoff for positive-scoring molecules 3-fold increase, read-out: AK-based Prestwick Library Screening Results, S. aureus (increase in extracellular AK activity)
[12] = planktonic E. coli, 50 μM final drug concentration, cutoff for positive-scoring molecules 3-fold increase, read-out: AK-based Prestwick Library Screening Results, E. coli (increase in extracellular AK activity)
[13] = planktonic E. faecium, 50 μM final drug concentration, cutoff for positive-scoring molecules 3-fold increase, read-out: AK-based Prestwick Library Screening Results, E. faecium (increase in extracellular AK activity)
[14] = planktonic K. pneumoniae, 50 μM final drug concentration, cutoff for positive-scoring molecules 3-fold increase, read-out: AK-based Prestwick Library Screening Results, K. pneumoniae (increase in extracellular AK activity)
[15] = 50 μM final drug concentration, planktonic, cutoff for positive-scoring molecules 3-fold increase, read-out: AK-based Prestwick Library Screening Results, A. baumannii (fold increase in extracellular AK activity)
[16] = 50 μM final drug concentration, planktonic, cutoff for positive-scoring molecules 3-fold increase, read-out: AK-based Prestwick Library Screening Results, P. aeruginosa (fold increase in extracellular AK activity)
[17] = 50 μM final drug concentration, planktonic, cutoff for positive-scoring molecules 3-fold increase, read-out: AK-based Prestwick Library Screening Results, E. cloacae (fold increase in extracellular AK activity)
[18] = 50 μM final drug concentration, planktonic, cutoff for positive-scoring molecules 3-fold increase, read-out: AK-based Prestwick Library Screening Results, S. aureus (fold increase in extracellular AK activity)
[19] = 50 μM final drug concentration, planktonic, cutoff for positive-scoring molecules 3-fold increase, read-out: AK-based Prestwick Library Screening Results, E. coli (fold increase in extracellular AK activity)
[20] = 50 μM final drug concentration, planktonic, cutoff for positive-scoring molecules 3-fold increase, read-out: AK-based Prestwick Library Screening Results, E. faecium (fold increase in extracellular AK activity)
[21] = 50 μM final drug concentration, planktonic, cutoff for positive-scoring molecules 3-fold increase, read-out: AK-based Prestwick Library Screening Results, K. pneumoniae (fold increase in extracellular AK activity)
[22] = 50 μM final drug concentration, planktonic, cutoff for positive-scoring molecules 3-fold increase

## CCOC(=O)OC(C)OC(=O)[C@@H]1N2C(=O)[C@@H](NC(=O)[C@H](N)c3ccccc3)[C@H]2SC1(C)C (stereo partly shown) [Bacampicillin hydrochloride]
[1]; [8]
  fold induction at 50 µM: 1.3
[2]; [9]
  fold induction at 50 µM: 0.6
[3]; [10]
  fold induction at 50 µM: 0.6
[4]; [11]
  fold induction at 50 µM: 0.5
[5]; [12]
  fold induction at 50 µM: 11.9
[6]; [13]
  fold induction at 50 µM: 1.1
[7]; [14]
  fold induction at 50 µM: 0.6

## COc1ccc2cc(CCC(C)=O)ccc2c1 [Nabumetone]
[1]; [15]
  fold induction at 50 µM: 0.4
[2]; [16]
  fold induction at 50 µM: 0.6
[3]; [17]
  fold induction at 50 µM: 1
[4]; [18]
  fold induction at 50 µM: 0.4
[5]; [19]
  fold induction at 50 µM: 0.5
[6]; [20]
  fold induction at 50 µM: 0.4
[7]; [21]
  fold induction at 50 µM: 0.5

## CCOc1ccc(Cc2nccc3cc(OCC)c(OCC)cc23)cc1OCC [Ethaverine hydrochloride]
[1]; [15]
  fold induction at 50 µM: 0.9
[2]; [16]
  fold induction at 50 µM: 0.9
[3]; [17]
  fold induction at 50 µM: 1
[4]; [18]
  fold induction at 50 µM: 0.5
[5]; [19]
  fold induction at 50 µM: 0.9
[6]; [20]
  fold induction at 50 µM: 1
[7]; [21]
  fold induction at 50 µM: 0.7

## Avermectin B1
[1]; [22]
  AK-based Prestwick Library Screening Results, A. baumannii (fold increase in extracellular AK activity): 0.8
[2]; [22]
  AK-based Prestwick Library Screening Results, P. aeruginosa (fold increase in extracellular AK activity): 0.6
[3]; [22]
  AK-based Prestwick Library Screening Results, E. cloacae (fold increase in extracellular AK activity): 0.9
[4]; [22]
  AK-based Prestwick Library Screening Results, S. aureus (fold increase in extracellular AK activity): 1.7
[5]; [22]
  AK-based Prestwick Library Screening Results, E. coli (fold increase in extracellular AK activity): 0.8
[6]; [22]
  AK-based Prestwick Library Screening Results, E. faecium (fold increase in extracellular AK activity): 1.2
[7]; [22]
  AK-based Prestwick Library Screening Results, K. pneumoniae (fold increase in extracellular AK activity): 0.6

## C[C@]12CC[C@H]3[C@@H](CCC4=CC(=O)CC[C@@H]43)[C@@H]1CC[C@@H]2O [Nandrolone]
[1]; planktonic A. baumannii, 50 μM final drug concentration, […], read-out: AK-based Prestwick library screening result, A. baumannii (fold increase in extracellular AK activity)
  fold induction at 50 µM: 0.8
[2]; planktonic P. aeruginosa, 50 μM final drug concentration, […], read-out: AK-based Prestwick library screening result, P. aeruginosa (fold increase in extracellular AK activity)
  fold induction at 50 µM: 0.9
[3]; planktonic E. cloacae, 50 μM final drug concentration, […], read-out: AK-based Prestwick library screening result, E. cloacae (fold increase in extracellular AK activity)
  fold induction at 50 µM: 1
[4]; planktonic S. aureus, 50 μM final drug concentration, […], read-out: AK-based Prestwick library screening result, S. aureus (fold increase in extracellular AK activity)
  fold induction at 50 µM: 0.7
[5]; planktonic E. coli, 50 μM final drug concentration, […], read-out: AK-based Prestwick library screening result, E. coli (fold increase in extracellular AK activity)
  fold induction at 50 µM: 0.9
[6]; planktonic E. faecium, 50 μM final drug concentration, […], read-out: AK-based Prestwick library screening result, E. faecium (fold increase in extracellular AK activity)
  fold induction at 50 µM: 1
[7]; planktonic K. pneumoniae, 50 μM final drug concentration, […], read-out: AK-based Prestwick library screening result, K. pneumoniae (fold increase in extracellular AK activity)
  fold induction at 50 µM: 0.7

## CCN[C@H]1CN(CCCOC)S(=O)(=O)c2sc(S(N)(=O)=O)cc21 [Brinzolamide]
[1]; [8]
  fold induction at 50 µM: 1.1
[2]; [9]
  fold induction at 50 µM: 1.1
[3]; [10]
  fold induction at 50 µM: 1.5
[4]; [11]
  fold induction at 50 µM: 1
[5]; [12]
  fold induction at 50 µM: 1.1
[6]; [13]
  fold induction at 50 µM: 1.4
[7]; [14]
  fold induction at 50 µM: 0.9

## COc1cc2c(c(OC)c1OC)-c1ccc(OC)c(=O)cc1[C@@H](NC(C)=O)CC2 [Colchicine]
[1]; read-out: AK-based Prestwick Library Screening Results, A. baumannii (increase in extracellular AK activity)
  fold induction at 50 µM: 1
[2]; read-out: AK-based Prestwick Library Screening Results, P. aeruginosa (increase in extracellular AK activity)
  fold induction at 50 µM: 1
[3]; read-out: AK-based Prestwick Library Screening Results, E. cloacae (increase in extracellular AK activity)
  fold induction at 50 µM: 1.1
[4]; read-out: AK-based Prestwick Library Screening Results, S. aureus (increase in extracellular AK activity)
  fold induction at 50 µM: 1
[5]; read-out: AK-based Prestwick Library Screening Results, E. coli (increase in extracellular AK activity)
  fold induction at 50 µM: 1.2
[6]; read-out: AK-based Prestwick Library Screening Results, E. faecium (increase in extracellular AK activity)
  fold induction at 50 µM: 1
[7]; read-out: AK-based Prestwick Library Screening Results, K. pneumoniae (increase in extracellular AK activity)
  fold induction at 50 µM: 0.9

## O=C1OC(CN2CCOCC2)CN1/N=C/c1ccc([N+](=O)[O-])o1 (stereo not shown) [Furaltadone hydrochloride]
[1]; [15]
  fold induction at 50 µM: 1
[2]; [16]
  fold induction at 50 µM: 1.1
[3]; [17]
  fold induction at 50 µM: 1.7
[4]; [18]
  fold induction at 50 µM: 0.7
[5]; [19]
  fold induction at 50 µM: 0.9
[6]; [20]
  fold induction at 50 µM: 1.1
[7]; [21]
  fold induction at 50 µM: 2.6

## Cc1cn([C@H]2C[C@H](N=[N+]=[N-])[C@@H](CO)O2)c(=O)[nH]c1=O [Zidovudine, AZT]
[1]; planktonic A. baumannii, 50 μM final drug concentration, cutoff for positive-scoring molecules 3-fold increase
  AK-based Prestwick Library Screening Results, A. baumannii (increase in extracellular AK activity): 1.8
[2]; planktonic P. aeruginosa, 50 μM final drug concentration, cutoff for positive-scoring molecules 3-fold increase
  AK-based Prestwick Library Screening Results, P. aeruginosa (increase in extracellular AK activity): 0.6
[3]; planktonic E. cloacae, 50 μM final drug concentration, cutoff for positive-scoring molecules 3-fold increase
  AK-based Prestwick Library Screening Results, E. cloacae (increase in extracellular AK activity): 4.2
[4]; planktonic S. aureus, 50 μM final drug concentration, cutoff for positive-scoring molecules 3-fold increase
  AK-based Prestwick Library Screening Results, S. aureus (increase in extracellular AK activity): 0.6
[5]; planktonic E. coli, 50 μM final drug concentration, cutoff for positive-scoring molecules 3-fold increase
  AK-based Prestwick Library Screening Results, E. coli (increase in extracellular AK activity): 2.1
[6]; planktonic E. faecium, 50 μM final drug concentration, cutoff for positive-scoring molecules 3-fold increase
  AK-based Prestwick Library Screening Results, E. faecium (increase in extracellular AK activity): 0.9
[7]; planktonic K. pneumoniae, 50 μM final drug concentration, cutoff for positive-scoring molecules 3-fold increase
  AK-based Prestwick Library Screening Results, K. pneumoniae (increase in extracellular AK activity): 1.2

## NS(=O)(=O)c1cc2c(cc1Cl)NCNS2(=O)=O [Hydrochlorothiazide]
[1]; 50 μM final drug concentration, 384-well format, cutoff for positive-scoring molecules 3-fold increase, read-out: AK-based Prestwick Library Screening Results, A. baumannii (increase in extracellular AK activity)
  fold induction at 50 µM: 0.5
[2]; 50 μM final drug concentration, 384-well format, cutoff for positive-scoring molecules 3-fold increase, read-out: AK-based Prestwick Library Screening Results, P. aeruginosa (increase in extracellular AK activity)
  fold induction at 50 µM: 0.5
[3]; 50 μM final drug concentration, 384-well format, cutoff for positive-scoring molecules 3-fold increase, read-out: AK-based Prestwick Library Screening Results, E. cloacae (increase in extracellular AK activity)
  fold induction at 50 µM: 0.4
[4]; 50 μM final drug concentration, 384-well format, cutoff for positive-scoring molecules 3-fold increase, read-out: AK-based Prestwick Library Screening Results, S. aureus (increase in extracellular AK activity)
  fold induction at 50 µM: 0.5
[5]; 50 μM final drug concentration, 384-well format, cutoff for positive-scoring molecules 3-fold increase, read-out: AK-based Prestwick Library Screening Results, E. coli (increase in extracellular AK activity)
  fold induction at 50 µM: 0.5
[6]; 50 μM final drug concentration, 384-well format, cutoff for positive-scoring molecules 3-fold increase, read-out: AK-based Prestwick Library Screening Results, E. faecium (increase in extracellular AK activity)
  fold induction at 50 µM: 1.1
[7]; 50 μM final drug concentration, 384-well format, cutoff for positive-scoring molecules 3-fold increase, read-out: AK-based Prestwick Library Screening Results, K. pneumoniae (increase in extracellular AK activity)
  fold induction at 50 µM: 0.6
